Laboratory results as given in paper PMC3316526, “Modulation of γ-Secretase Activity by Multiple Enzyme-Substrate Interactions: Implications in Pathogenesis of Alzheimer's Disease” (PLoS ONE, 2012).

Experiments:
[1] = tested on: γ-secretase; experiment: γ-Secretase reaction premixed with synthetic Aβ peptides (AICD production, urea gels of Aβ products); format: biochemical; settings: for effect on the rate of AICD production: extremely high concentrations of synthetic peptide, half-saturating C99 (0.45 µM); for effect on relative difference between Aβ 1–40, Aβ 1–42 and the longer Aβ products: reaction premixed with 10 nM synthetic peptide, urea gels, [C99] = 0.45 µM, 4 hours
Method: Figure 7 γ-Secretase is not affected by Aβ peptides present in free solution. (A) The lanes labeled as “free reaction” represent Aβ products after 4 hours of routine γ-secretase reaction at half saturating C99 substrate ([C99] = 0.45 µM). The lanes labeled as “+10 nM Aβ 1–42” and “+10 nM Aβ 1–40” represent “free reaction” premixed with synthetic Aβ 1–42 or Aβ 1–40 in a concentration equivalent that corresponds to 4 hours of free reaction. The lanes labeled “+21F12” and “+2G6” represent “free reaction” that was premixed with antibodies specific for Aβ42 or Aβ40 respectively. Both 2G6 and 21F12 antibodies bind the matching Aβ peptides very efficiently as indicated by a complete removal of the corresponding Aβ bands in the reactions with protein G beads (samples labeled as “21F12 and prot. G” and “2G6 and prot. G”). The lane “Aβ std 1-x” represents synthetic peptides as mobility standards. (B) AICD production was measured at half-saturating C99 substrate (0.45 µM) in assays that were premixed with increasing concentrations of synthetic Aβ 1–38, Aβ 1–40, Aβ 1–42, or Aβ 1–44.
γ-Secretase assays using CHAPSO enriched membranes were performed essentially as earlier described, [37], [48], [89]. Briefly, microsomal fractions (protein concentration 10 mg/ml) from different MEF cells were solubilized in 1% CHAPSO buffer (50 mM Pipes, pH 7.0, 0.25 M sucrose, 1 mM EGTA, 1×Complete protease inhibitor mixture (Roche)) and incubated on ice for 1 h. CHAPSO was always prepared as 1% w/v fresh from a powder stock that was less than 6 months old and kept at 4°C (freshness is crucial for high activity). Next, the membrane-solubilized protein fractions were obtained as supernatant by ultracentrifugation for 1 hour at 100,000×g. The prepared CHAPSO enriched membranes were diluted two fold with 50 mM Pipes pH = 7.0, 0.25 M sucrose, 1 mM EGTA, 0.1% phosphatidylcholine, and 0.0125% phosphatidylethanolamine, plus 1×Complete protease inhibitor mixture (Roche), and left on 37°C for two to three hours. This incubation can increase the measured activity by up to 70% since it can accommodate slow reassembly of γ-secretase components that is induced by the transition from 1% CHAPSO to 0.25% CHAPSO [90]. The reactions were started by adding C99 substrate in desired concentration, the added volume was adjusted so that: i) the final CHAPSO concentration was 0.25%; ii) and final concentration of membrane proteins was 0.25 mg/ml. Fresh C99 substrate that is used immediately after purification gives the best opportunity to observe described enzymatic features and the highest activity. The assay mix was prepared in low adhesion microcentrifuge tubes, the volume was usually 25 µL. To increase sensitivity in early data points detection, and at low enzyme saturation, the assay volume was increased up to 400 µL, and the resulting reaction products were concentrated by immunoprecipitation before the gels were loaded. The reaction mix was incubated at 37°C, the time was optimized for each experiment. The AICD production remains linear for 6 hours at saturating substrate. The reaction specificity was confirmed by running identical parallel reactions that have been saturated with inhibitors specific for γ-secretase; 10 µM LY-411,575 and 10 µM DAPT [3], [4].
AICD assays using western-blots with anti-flag αM2 monoclonal antibody, or 125-I labelled C99 autoradiography were performed as earlier described, [37]. To keep the C99 bands visible on gels in difference to the previous studies the reaction aliquots were not subjected to methanol /chloroform extraction. Briefly, the samples were separated on Nu-PAGE 12% Bis/Tris/MES/SDS-page gels (Invitrogen) at 150 V for 55 min. For 125-I-C99 assays the gels were dried and exposed for 1–2 hours to europium intensifying screens for autoradiography. […]

[2] = molecular target: γ-secretase (CHAPSO enriched γ-secretase membranes) (not stated (endogenous mouse in MEF, or human presenilin 1 transduced) | mouse (endogenous in MEF)) (UniProt P49768)

Substance | effect on the rate of AICD production [1] | effect on relative difference between Aβ 1–40, Aβ 1–42 and the longer Aβ products [1] | AICD production from 125-I labeled C99 at half-saturating C99 (0.44-0.45 µM) with increasing NotchΔE substrate: activation, then inhibition only at higher NotchΔE concentrations [2] [%]
Aβ 1–38: synthetic Aβ 1-x standard prepared by solid phase synthesis | do not affect |  | 
Aβ 1–40: synthetic Aβ 1-x standard prepared by solid phase synthesis | do not affect | does not affect | 
Aβ 1–42: synthetic Aβ 1-x standard prepared by solid phase synthesis | do not affect | does not affect | 
Aβ 1–44: synthetic Aβ 1-x standard prepared by solid phase synthesis | do not affect |  | 
NotchΔE substrate (NotchΔE-3xFLAG) (domain or fragment) |  |  | 85
